Reference: PMC11206297, “Targeting NAD Metabolism: Rational Design, Synthesis and In Vitro Evaluation of NAMPT/PARP1 Dual-Target Inhibitors as Anti-Breast Cancer Agents” (Molecules, 2024)
Where two headings read alike, the source gives them in different places.

Key:
[1] = target: T1, PARP1 (Homo sapiens, UniProt P09874); set-up: method as in PMID 18579376, PMID 18800822, PMID 24388690, PMID 28340412, PMID 36183505; details: in figure; cited from earlier work
[2] = test system: MDA-MB-468; assay: MTT cell viability assay, MDA-MB-468; type: cell-based; details: Homo sapiens, 72 h, mean ± SEM, read-out: Cytotoxicity IC50 MDA-MB-468
Method: (§1) MDA-MB-468, MDA-MB-231, MCF-7, and MCF-10A cell lines were obtained from the National Collection of Authenticated Cell Culture, China. The cells were cultured in DMEM medium supplemented with 10% FBS and 1% penicillin/streptomycin, and maintained at 37 °C in a humidified atmosphere with 5% CO2.
(§2) Cell viability was assessed using the MTT assay. Cells were seeded at a density of 3 × 10^3 cells per well in a 96-well plate and treated with various concentrations (0.05, 0.2, 0.8, 3.2, 6.4, 12.8 µM) of the compounds for 72 h. After incubation, 100 µL of MTT solution (0.5 mg/mL) was added to each well and further incubated for 4 h. The resulting formazan crystals were dissolved in 150 µL of DMSO, and the absorbance was measured at 570 nm using a microplate reader.

[3] = test system: MDA-MB-231; assay: MTT cell viability assay, MDA-MB-231; type: cell-based; details: Homo sapiens, 72 h, mean ± SEM, read-out: Cytotoxicity IC50 MDA-MB-231
Method: as §1, §2

[4] = target: T1, PARP1; assay: PARP1 enzymatic inhibition assay (ELISA, chemiluminescence); type: biochemical; details: for IC50: mean ± SD of at least two independent experiments in duplicate; for inhibition at 0.5 µM: duplicate, average, read-out: PARP1 Inhibition Rate
[5] = test system: MCF-7; assay: MTT cell viability assay, MCF-7; type: cell-based; details: Homo sapiens, MCF7, 72 h, mean ± SEM, read-out: Cytotoxicity IC50 MCF-7
Method: as §1, §2

[6] = target: NAMPT (Homo sapiens, UniProt P43490); assay: NAMPT enzymatic inhibition assay (fluorescence, coupled NMNAT/alcohol dehydrogenase); type: biochemical; details: for inhibition at 0.1 µM / NAMPT Inhibition Rate: duplicate, average, 0.1 μM; for inhibition at 0.1 µM: read-out: NAMPT Inhibition Rate; for IC50: mean ± SD of at least two independent experiments in duplicate
Chain of NAMPT (P43490 whole entry): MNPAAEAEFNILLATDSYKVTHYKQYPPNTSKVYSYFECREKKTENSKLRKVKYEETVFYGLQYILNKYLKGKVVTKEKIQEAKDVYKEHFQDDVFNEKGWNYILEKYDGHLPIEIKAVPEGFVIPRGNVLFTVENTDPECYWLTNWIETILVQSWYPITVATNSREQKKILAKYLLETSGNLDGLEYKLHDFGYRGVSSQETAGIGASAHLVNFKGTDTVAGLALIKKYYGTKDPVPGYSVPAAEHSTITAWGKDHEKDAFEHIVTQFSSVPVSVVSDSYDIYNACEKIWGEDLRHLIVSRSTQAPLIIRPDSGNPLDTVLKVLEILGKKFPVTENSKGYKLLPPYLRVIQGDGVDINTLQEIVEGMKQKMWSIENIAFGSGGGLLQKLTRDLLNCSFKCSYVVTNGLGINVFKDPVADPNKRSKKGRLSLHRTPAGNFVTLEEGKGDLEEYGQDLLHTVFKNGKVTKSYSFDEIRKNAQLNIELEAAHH

[7] = test system: MCF-10A; assay: MTT cell viability assay, MCF-10A normal breast epithelial cells; type: cell-based, human; details: for viability at 3 µM: Homo sapiens, 72 h, MCF-10A, mean ± SEM, read-out: Cell Survival Rate
Method: as §1, §2

[8] = test system: MDA-MB-468 cells; assay: Wound scratch cell migration assay; type: cell-based; details: 1 μM, up to 48 h
Method: MDA-MB-468 cells were plated in 6-well plates at a density of 5 × 10^5 cells/well and allowed to incubate overnight. A scratch was carefully generated in the cell monolayer using a 10 µL pipette tip. […] Images were acquired at 0, 12, 24, and 48 h time points to monitor and analyze the migration of cells over the specified intervals.

[9] = test system: MDA-MB-468 cells; assay: Western blot of BCL2; type: cell-based; details: 24 h, 1 μM
Method: (§3) Cells were then lysed using RIPA buffer supplemented with protease and phosphatase inhibitors. Protein concentrations were determined using the BCA Protein Assay Kit (Thermo Fisher Scientific^TM, Waltham, MA, USA). Equal amounts of protein (20–30 µg) were separated by SDS-polyacrylamide gel electrophoresis and transferred to a polyvinylidene fluoride (PVDF) membrane. The membrane was blocked with 5% milk in PBS before incubation with primary antibodies. Primary antibodies against γ-H2AX (Cell Signaling Technology™, Danvers, MA, USA), BCL2 (Abcam™, Cambridge, UK), and β-actin (Proteintech™, Rosemont, IL, USA) were used. After overnight incubation at 4 °C, membranes were washed and incubated with HRP-conjugated secondary antibodies for 1 h. Protein bands were visualized using ECL reagents (Labgic Technology^TM, Beijing, China).

[10] = test system: MDA-MB-468 cells; assay: NMN rescue of cytotoxicity; type: cell-based; details: 200 μM NMN
Source text: NMN is the direct product of the NAMPT-catalyzed reaction. Excessive NMN can counteract the inhibitory effect of NAMPT inhibition. […] The reversal of DDY02’s efficacy by NMN underscores the compound’s mechanism of action and confirms the critical role of NAMPT inhibition in mediating its therapeutic effects. This observation also emphasizes the potential of NMN as a modulator in therapeutic scenarios involving NAMPT-targeted treatments.

[11] = MTT cell viability assay, MCF-10A normal breast epithelial cells; type: cell-based, human; details: human, MCF-10A normal breast epithelial cells; MCF-10A; mean ± SEM; read-out: Cytotoxicity IC50
Method: as §1, §2

[12] = test system: MDA-MB-468 cells; assay: Western blot of γ-H2AX; type: cell-based; details: 24 h, 1 μM
Method: as §3

[13] = test system: MDA-MB-468 cells; assay: Cellular NAD level determination (NAD+/NADH WST-8 kit); type: cell-based; details: 24 h, 1 μM
Method: According to the manufacturer’s instructions, an NAD^+/NADH Assay kit with WST-8 (Beyotime, China) was used to measure the intracellular NAD level. The cells collected by centrifugation were added to NAD^+/NADH lysis buffer to obtain a cell lysate. After adding […] working solution, the lysate was incubated at 37 °C for 10 min, and then followed by the addition of color-developing solution. The total concentration of NADH and NAD can be measured by detecting the absorbance at 450 nm. To measure the concentration of NADH, the cell lysate was incubated at 60 °C for 30 min before adding […] working solution. Finally, the NAD content is obtained by the subtraction [NAD^+] = [NADH + NAD^+] − [NADH].

T1 sequence (P09874 whole entry): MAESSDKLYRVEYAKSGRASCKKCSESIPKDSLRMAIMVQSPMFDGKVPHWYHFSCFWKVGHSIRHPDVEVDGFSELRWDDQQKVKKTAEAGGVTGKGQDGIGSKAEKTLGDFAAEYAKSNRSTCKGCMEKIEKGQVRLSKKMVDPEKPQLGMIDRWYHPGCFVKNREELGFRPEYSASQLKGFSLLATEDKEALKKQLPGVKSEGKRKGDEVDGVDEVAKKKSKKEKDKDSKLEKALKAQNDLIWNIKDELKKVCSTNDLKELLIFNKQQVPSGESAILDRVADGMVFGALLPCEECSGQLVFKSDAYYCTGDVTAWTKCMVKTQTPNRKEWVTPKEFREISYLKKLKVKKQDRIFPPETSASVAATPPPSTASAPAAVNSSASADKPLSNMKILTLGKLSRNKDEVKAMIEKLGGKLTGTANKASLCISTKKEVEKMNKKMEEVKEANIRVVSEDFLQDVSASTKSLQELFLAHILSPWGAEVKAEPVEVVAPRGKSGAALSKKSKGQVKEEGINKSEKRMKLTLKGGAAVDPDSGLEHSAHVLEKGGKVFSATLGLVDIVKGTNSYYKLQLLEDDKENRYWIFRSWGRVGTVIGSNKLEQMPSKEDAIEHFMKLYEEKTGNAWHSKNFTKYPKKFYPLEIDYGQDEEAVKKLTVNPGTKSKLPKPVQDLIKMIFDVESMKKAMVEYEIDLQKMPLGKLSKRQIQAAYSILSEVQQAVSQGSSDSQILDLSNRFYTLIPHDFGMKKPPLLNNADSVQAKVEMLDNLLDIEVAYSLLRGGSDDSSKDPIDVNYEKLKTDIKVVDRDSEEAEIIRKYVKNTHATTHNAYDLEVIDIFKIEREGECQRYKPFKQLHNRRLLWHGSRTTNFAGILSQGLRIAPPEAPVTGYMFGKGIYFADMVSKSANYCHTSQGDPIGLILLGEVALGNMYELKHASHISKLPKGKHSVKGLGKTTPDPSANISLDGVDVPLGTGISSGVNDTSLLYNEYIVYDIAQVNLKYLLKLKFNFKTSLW

Row | SMILES | IC50 [1] | IC50 [2] | IC50 [3] | melting point | IC50 [4] | fold decrease in inhibitory capacity against PARP1 compared to Olaparib ([4]; ratio of IC50 values) | IC50 [5] | inhibition at 0.1 µM [6] | viability at 3 µM [7] | IC50 [6] | inhibition at 0.5 µM [4] | NAMPT Inhibition Rate [6] | inhibitory effect on cell migration [8] | BCL2 expression [9] | cytotoxic effects after preincubation with NMN [10] | IC50 at 72 h [11] | accumulation of γ-H2AX [12] | cellular NAD levels [13] | selectivity of cytotoxic activity between breast cancer cells and normal cells (MCF-10A) ([7]; comparison of Tables 2 and 3)
1 | NC(=O)c1ccccc1OCc1ccc(F)c(C(=O)N2CCN(C(=O)C3CCCC3)CC2)c1 [Compound 16] | 0.061 µM |  |  |  |  |  |  |  |  |  |  |  |  |  |  |  |  |  | 
2 | O=C(c1cc(Cc2n[nH]c(=O)c3ccccc23)ccc1F)N1CCN(S(=O)(=O)c2ccc(NC(=S)NCc3cccnc3)cc2)CC1 [DDY01, 1-(4-((4-(2-Fluoro-5-((4-oxo-3,4-dihydrophthalazin-1-yl)methyl)benzoyl)piperazin-1-yl)sulfonyl)phenyl)-3-(pyridin-3-ylmethyl)thiourea] |  | 5.09 ± 0.09 µM | 6.17 ± 0.27 µM | 189 to 190 °C | 0.009 ± 0.002 µM | 4.5 fold | 8.48 ± 0.18 µM | 83% | 67.1 ± 1.73% |  |  |  |  |  |  |  |  |  | 
3 | O=C(NCc1cccnc1)Nc1ccc(S(=O)(=O)N2CCN(C(=O)CCc3nc4ccccc4c(=O)[nH]3)CC2)cc1 [DDY03, 1-(4-((4-(3-(4-Oxo-3,4-dihydroquinazolin-2-yl)propanoyl)piperazin-1-yl)sulfonyl)phenyl)-3-(pyridin-3-ylmethyl)urea] |  | 8.17 ± 0.31 µM | 10.9 ± 0.68 µM | 120 to 121 °C | 0.025 ± 0.007 µM |  | 11.2 ± 0.79 µM |  | 80.7 ± 1.5% | 0.055 ± 0.019 µM |  |  |  |  |  |  |  |  | 
4 | NC(=O)c1ccccc1OCc1ccc(F)c(C(=O)N2CCN(S(=O)(=O)c3ccc(NC(=S)NCc4cccnc4)cc3)CC2)c1 [DDY04, 2-((4-Fluoro-3-(4-((4-(3-(pyridin-3-ylmethyl)thioureido)phenyl)sulfonyl)piperazine-1-carbonyl)benzyl)oxy)benzamide] |  | 14.1 ± 0.3 µM | 13.5 ± 0.66 µM | 125 to 126 °C |  |  | 13.4 ± 2.41 µM | 84 to 86% | 98.4 ± 1.74% |  | 70% | 84% |  |  |  |  |  |  | 
5 | NC(=O)c1ccccc1OCc1ccc(F)c(C(=O)N2CCN(S(=O)(=O)c3ccc(NC(=O)NCc4cccnc4)cc3)CC2)c1 [DDY05, 2-((4-Fluoro-3-(4-((4-(3-(pyridin-3-ylmethyl)ureido)phenyl)sulfonyl)piperazine-1-carbonyl)benzyl)oxy)benzamide] |  | 8.02 ± 0.74 µM | 10.2 ± 0.29 µM | 119 to 120 °C |  |  | > 20 µM | 84 to 86% | 88.7 ± 2.41% |  |  | 86% |  |  |  |  |  |  | 
6 | NC(=O)c1ccccc1OCc1ccc(F)c(C(=O)N2CCN(S(=O)(=O)Cc3ccc(NC(=O)NCc4cccnc4)cc3)CC2)c1 [DDY06, 2-((4-Fluoro-3-(4-((4-(3-(pyridin-3-ylmethyl)ureido)benzyl)sulfonyl)piperazine-1-carbonyl)benzyl)oxy)benzamide] |  | 17.2 ± 1.57 µM | 15.4 ± 2.15 µM |  |  |  | 7.95 ± 0.34 µM | 48% | 69.5 ± 2.56% |  | 89% |  |  |  |  |  |  |  | 
7 | NC(=O)c1cc(F)ccc1OCc1ccc(F)c(C(=O)N2CCN(S(=O)(=O)c3ccc(NC(=O)NCc4cccnc4)cc3)CC2)c1 [DDY07, 5-Fluoro-2-((4-fluoro-3-(4-((4-(3-(pyridin-3-ylmethyl)ureido)phenyl)sulfonyl)piperazine-1-carbonyl)benzyl)oxy)benzamide] |  | 7.43 ± 0.23 µM | 8.1 ± 0.71 µM | 122 to 123 °C |  |  | 13.5 ± 0.16 µM | 84% | 70.73 ± 0.07% |  | 92% |  |  |  |  |  |  |  | 
8 | NC(=O)c1ccccc1OCc1cccc(C(=O)N2CCN(S(=O)(=O)c3ccc(NC(=O)NCc4cccnc4)cc3)CC2)c1 [DDY08, 2-((3-(4-((4-(3-(Pyridin-3-ylmethyl)ureido)phenyl)sulfonyl)piperazine-1-carbonyl)benzyl)oxy)benzamide] |  | 12.9 ± 1.69 µM | 11.1 ± 0.19 µM | 202 to 203 °C |  |  | 9.18 ± 0.44 µM | 80% | 72.6 ± 3.46% |  | 69% |  |  |  |  |  |  |  | 
9 | NC(=O)c1cc(F)ccc1OCc1cccc(C(=O)N2CCN(S(=O)(=O)c3ccc(NC(=O)NCc4cccnc4)cc3)CC2)c1 [DDY09, 5-Fluoro-2-((3-(4-((4-(3-(pyridin-3-ylmethyl)ureido)phenyl)sulfonyl)piperazine-1-carbonyl)benzyl)oxy)benzamide] |  | 6.98 ± 0.57 µM | 8.7 ± 0.24 µM | 147 to 148 °C |  |  | 11 ± 0.82 µM | 86% | 66.9 ± 2.45% |  | 78% |  |  |  |  |  |  |  | 
10 | NC(=O)c1cccc2[nH]c(C(=O)N3CCN(S(=O)(=O)c4ccc(NC(=S)NCc5cccnc5)cc4)CC3)nc12 [DDY10, 2-(4-((4-(3-(Pyridin-3-ylmethyl)thioureido)phenyl)sulfonyl)piperazine-1-carbonyl)-1H-benzo[d]imidazole-4-carboxamide] |  | 6.74 ± 0.16 µM | 4.45 ± 0.29 µM | > 250 °C |  |  | 8.83 ± 0.31 µM | 7% | 96.9 ± 1.71% |  | 55% |  |  |  |  |  |  |  | 
11 | NC(=O)c1cccc2[nH]c(C(=O)N3CCN(S(=O)(=O)c4ccc(NC(=O)NCc5cccnc5)cc4)CC3)nc12 [DDY11, 2-(4-((4-(3-(Pyridin-3-ylmethyl)ureido)phenyl)sulfonyl)piperazine-1-carbonyl)-1H-benzo[d]imidazole-4-carboxamide] |  | 12.2 ± 1.39 µM | 13.8 ± 0.33 µM | > 250 °C | 0.014 ± 0.003 µM |  | 7.39 ± 0.34 µM |  | 82.15 ± 0.21% | 0.034 ± 0.009 µM |  |  |  |  |  |  |  |  | 
12 | O=C(/C=C/c1cccnc1)NCCCCC1CCN(C(=O)c2ccccc2)CC1 [FK866, reference compound] |  | 4.01 ± 0.21 µM | 3.83 ± 0.12 µM |  |  |  | 5.8 ± 0.86 µM |  | 65.49 ± 0.41% |  |  |  | weakest inhibitory activity | no effect on the expression of BCL2 | reversed the cytotoxic effects | 4.41 ± 0.22 µM | promoted the accumulation of γ-H2AX |  | 
13 | O=C(c1cc(Cc2n[nH]c(=O)c3ccccc23)ccc1F)N1CCN(C(=O)C2CC2)CC1 [Olaparib, reference compound] |  | 6.19 ± 0.09 µM | 6.74 ± 0.08 µM |  |  |  | 8.68 ± 0.81 µM |  | 91.8 ± 1.78% |  |  |  | most robust inhibitory effect | significantly inhibited the expression of the BCL2 protein |  | 9.61 ± 0.77 µM |  | did not alter intracellular NAD levels compared to the control | no selectivity
